# Read-outs that look alike come from different tables or passages of the source. Bridges are numbered along the chain shown (N, C = ends).
# What was measured:
# NPR2 guanylyl cyclase [1] = test: cGMP production in chondrocytes of intact tibia growth plates (cGi500 FRET sensor imaging); format: cell-based, mouse; conditions: for cGMP increase (CFP/YFP emission ratio from cGi500) on perfusion of agonist: no FGF
# Method: cGMP production in chondrocytes within intact growth plates was measured using tibias dissected from newborn mice (0- to 1-day-old mice) that globally expressed 1 or 2 copies of the cGi500 FRET sensor, as previously described ([27]). Tibias were dissected and cultured overnight on Millicell organotypic membranes (PICMORG50; MilliporeSigma) in BGJb medium (Thermo Fisher Scientific, catalog 12591-038) with 0.1% BSA (MP Biomedicals, catalog 103700), 100 units/mL of penicillin, and 100 μg/mL of streptomycin (Thermo Fisher Scientific, 15140-122). In preparation for imaging, each tibia was slit to remove the tissue overlying the growth plate. Where indicated, the tibia was incubated in LB-100, cantharidin, or control medium, followed by addition of FGF18 (0.5 μg/mL + 1 μg/mL heparin) or control medium containing heparin only. The tibia was then placed in a perfusion slide (ibidi USA, catalog 80186, special order with no adhesive), and the growth plate was imaged on the stage of a confocal microscope, as previously described ([27]).
# NPR2 = NPR2 phosphorylation in primary rib chondrocyte cultures (Phos-tag gel electrophoresis, Western blot); format: cell-based, mouse; conditions: for NPR2 dephosphorylation in response to FGF: then FGF18 0.5 μg/mL 10 minutes
# Method: Rib cages were dissected from newborn mice (0–2 days old) and trimmed to remove the skin, spinal cord, and soft tissue around the sternum and ribs. Nonchondrocyte tissue was digested away by incubating the rib cages in 2 mg/mL pronase (Roche, catalog 10165921001) in PBS for 1 hour in a shaking water bath at 37°C and was then incubated in 3 mg/mL collagenase D (Roche, catalog 11088866001) in medium for 1 hour. After washing, the rib cages were transferred to a dish with fresh collagenase D and incubated for 5–6 hours, with trituration at 2 hours, to release the chondrocytes. The isolated cells were passed through a 40 μm nylon cell strainer (Corning, catalog 431750), resuspended in DMEM/F12 medium (Thermo Fisher Scientific, catalog 11320-033) with 10% FBS (Thermo Fisher Scientific, catalog 10082-139), 100 units/mL of penicillin, and 100 μg/mL of streptomycin. The cells were plated in 35 mm tissue culture dishes, at a density corresponding to 1 newborn mouse per dish, and cultured for 3 days, at which point the cells were approximately 75%–90% confluent. They were then washed with PBS and incubated in serum-free medium for 18 hours. The cells were then incubated in LB-100 (10 μM), or control medium, followed by addition of FGF18 (0.5 μg/mL + 1 μg/mL heparin) or control medium containing heparin only.
# At end of the incubation period, dishes were washed in PBS, and cells were lysed in 250 μL of 1% SDS containing 10 mM sodium fluoride, 1 μM microcystin-LR (Cayman Chemical, catalog 10007188), and protease inhibitor cocktail (Roche, catalog 04 693 159 001). Protein content was determined by a BCA assay (Pierce, catalog 23225). The protein yield per newborn mouse was approximately 200–300 μg.
# Proteins were separated in a Phos-tag–containing gel, as previously described ([58]), except that chondrocyte lysates (30 μg protein) were used without immunoprecipitation. Phos-tag and protein size markers were obtained from Fujifilm Wako Pure Chemical (catalogs AAL-107 and 230-02461, respectively). For these studies, we used mice with HA-tagged NPR2 ([43]), and blots were probed with an antibody against the HA tag (Cell Signaling Technology, catalog 2367, 1:1000 dilution). The specificity of this antibody is validated in Supplemental Figure 3. Note that molecular weight markers are only approximate for Phos-tag gels.
# NPR2 guanylyl cyclase [2] = test system: NPR2 guanylyl cyclase; design: method as in PMID 29199951; conditions: 100 μM; cited from earlier work
# Fgfr3^Y367C/+ mice = test system: Fgfr3^Y367C/+ mice; design: method as in PMID 23200862; conditions: cited from earlier work
# Fgfr3^Y367C/+ femurs = test: Ex vivo culture of fetal femurs, growth in length and area; design: species or system mouse; conditions: E16.5 Fgfr3^Y367C/+ femurs, 6-day culture; LB-100 10 μM, BMN-111 0.1 μM
# Method: Femurs from E16.5 embryos were cultured ex vivo, as described previously ([32], [47]). The left femur was cultured in the presence of LB-100 (10 μM), BMN-111 (0.1 μM), or LB-100 (10 μM) + BMN-111 (0.1 μM) and was compared with the vehicle-treated right femur. The bone’s length was measured on day 0 (D0) and D6. Images were captured with an Olympus SZX12 stereo microscope and quantified using cellSens software (Olympus). The results were expressed as the increase in femur length or area (D6 – D0) in the presence or absence of LB-100, BMN-111, or LB-100 + BMN-111. Bone length and area were measured as shown in Supplemental Figure 5. To generate the graphs shown in Figure 3, the length or 2-dimensional area on D0 was subtracted from the length or area on D6 to calculate the amount of growth. These measurements of growth in drug-treated bones were divided by the mean values from corresponding measurements of control (vehicle-treated) bones; the graphs show the ratio of treated/control growth.
# [3] = test system: growth plate chondrocytes of Fgfr3^Y367C/+ femurs; test: Histology of growth plates of ex vivo cultured femurs (HES, COLX immunostaining); design: species or system mouse; conditions: 6-day culture, LB-100 10 μM, BMN-111 0.1 μM
# Source text: After a 6-day culture period, fetal femur (E16.5) explants were fixed in 4% paraformaldehyde, decalcified with EDTA (0.4M), and embedded in paraffin. Serial 5 μm sections were stained with hematoxylin‑eosin‑safran (HES) reagent, using standard protocols. For immunohistochemical assessment, sections were labeled with the following antibodies and a Dako Envision Kit: anti-COLX (BIOCYC, catalog N.2031501005; 1:50 dilution), and anti–phosphorylated ERK1‑2 ([…]) (Cell Signaling Technology, catalog 4370; 1:100 dilution). Images were captured with an Olympus PD70-IX2-UCB microscope and quantified using cellSens software.
# Mean areas of individual hypertrophic chondrocytes were measured from COLX-labeled sections, within a 166 μm wide × 76 μm high box positioned 50 μm from mineralization front (Supplemental Figure 6). The measurements were made manually using Fiji software and the freehand selection tool. […] We measured the total area occupied by chondrocytes within the whole growth plate and the area occupied by COLX^+ chondrocytes. The area for proliferating chondrocytes was calculated by subtracting the COLX^+ area from the whole growth plate area.
# children with ACH = test system: children with ACH; design: method as in PMID 31269546, PMID 32891212; conditions: children 5–14 years of age with ACH, up to 42 months, phase 2 and 3 data; cited from earlier work
# [4] = biological target: T1, recombinant PPP1CA (PPP1C) (Homo sapiens, UniProt P62136); test: Phosphatase activity inhibition assay (DiFMUP or [32P]-phosphohistone substrate); format: biochemical
# T1 construct: made in house; host or cells: E. coli BL-21
# Method: The coding sequence of human PPP1CA was expressed as a maltose binding protein fusion in a BL-21 strain of E. coli and purified as previously described ([55]). Phosphohistone phosphatase assays were performed as previously described ([55], [56]). Briefly, LB-100, at the indicated concentrations, or vehicle control (H2O) was added to enzyme/buffer aliquots about 10 minutes prior to starting assays by the addition of [^32P]-phosphohistone substrate (to a final assay concentration of 300 nM incorporated phosphate). [^32P]-phosphohistone was prepared by the phosphorylation of bovine brain histone (MilliporeSigma, type-2AS) with cAMP-dependent protein kinase (PKA) in the presence of cAMP and [^32P]-ATP using established methods ([56], [57]). Phosphatase activity was measured by the quantitation of [^32P]-labeled orthophosphate liberated from the substrate using established protocols ([57]). 6,8-Difluoro-4-methylumbelliferyl phosphate–based (DiFMUP-based) inhibition assays were conducted as described ([56], [57]), in a 96-well format using DiFMUP (Invitrogen) (100 μM final assay concentration). IC50 values were calculated from a 10-point concentration/dose response curve by a 4-parameter logistic fit of the data, using 3–8 replicates per concentration.
# PPP2C = test system: PPP2C; design: method as in PMID 30679389; conditions: reported previously, read-out: Phosphatase IC50 mean ± SE, PPP2C, cited from earlier work
# PPP5C = test system: PPP5C; design: method as in PMID 30679389; conditions: reported previously, read-out: Phosphatase IC50 mean ± SE, PPP5C, cited from earlier work
# [5] = substrate [32P]-labeled phosphohistone
# T1 sequence (P62136 whole entry): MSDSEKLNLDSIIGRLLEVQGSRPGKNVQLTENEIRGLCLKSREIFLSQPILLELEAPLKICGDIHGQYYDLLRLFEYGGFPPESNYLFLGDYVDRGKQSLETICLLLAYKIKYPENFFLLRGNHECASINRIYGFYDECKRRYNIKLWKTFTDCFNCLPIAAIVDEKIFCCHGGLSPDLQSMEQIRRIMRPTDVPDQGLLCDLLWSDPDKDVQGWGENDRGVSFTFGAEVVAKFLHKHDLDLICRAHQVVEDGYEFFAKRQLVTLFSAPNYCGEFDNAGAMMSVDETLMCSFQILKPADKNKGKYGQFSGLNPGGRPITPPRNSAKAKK
compound,measurement,setting,value
FGF18: fibroblast growth factor 18 used to activate FGF receptor,Effect on cGMP increase in response to CNP perfusion,"NPR2 guanylyl cyclase [1]; pretreatment 0.5 μg/mL FGF18 + 1 μg/mL heparin for 80 minutes, 0.1 μM CNP",suppressed the cGMP increase
same,NPR2 phosphorylation,NPR2; FGF18 0.5 μg/mL for 10 minutes,decrease in NPR2 phosphorylation
"C[C@@]12C(=O)OC(=O)[C@]1(C)[C@H]1CC[C@@H]2O1 [cantharidin, Cantharidin]",Effect on inactivation of NPR2 by FGF in growth plate chondrocytes,NPR2 guanylyl cyclase [2],inhibits the inactivation of NPR2
"ANP: A-type natriuretic peptide, which activates the NPR1 guanylyl cyclase",cGMP increase (CFP/YFP emission ratio from cGi500) on perfusion of agonist,NPR2 guanylyl cyclase [1]; 0.1 μM agonist perfused across growth plate of newborn mouse tibia,did not increase cGMP
CCN(CC)/[N+]([O-])=N/O.CCNCC [DEA/NO],cGMP increase (CFP/YFP emission ratio from cGi500) on perfusion of agonist,NPR2 guanylyl cyclase [1]; 10 μM perfused across growth plate of newborn mouse tibia,did not increase cGMP
"(Cyc[23,39])H2N-PGQEHPNARKYKGANKKGLSKGCFGLKLDRIGSMSGLGC-OH (H-PGQEHPNARKYKGANKKGLSKGCFGLKLDRIGSMSGLGC-OH; disulfide 23-39) [BMN-111, protease-resistant CNP analog, NPR2 agonist]",NPR2 phosphorylation,"NPR2; 0.1 μM for 1 hour, independently of FGF treatment",some reduction in NPR2 phosphorylation
same,Bone growth in mouse model of ACH,Fgfr3^Y367C/+ mice,increases bone growth
same,"Increase in bone length, ratio treated/vehicle-treated control",Fgfr3^Y367C/+ femurs,1.78
same,"Increase of total bone and cartilage area, growth ratio treated/control",Fgfr3^Y367C/+ femurs,1.51
same,Size of Fgfr3^Y367C/+ hypertrophic chondrocytes,[3]; proximal growth plate,increased the size
same,Increase of total proliferative growth plate area of the femur over vehicle,[3]; proximal plus distal growth plates,20%
same,Annualized growth velocity,children with ACH,sustained increase in annualized growth velocity
"CN1CCN(C(=O)C2C3CCC(O3)C2C(=O)O)CC1 (stereo not shown) [LB-100, 3-[4-methylpiperazine-1-carbonyl]-7-oxabicyclo[2.2.1]heptane-2-carboxylic acid]",IC50,"[4]; 2 established assays with different substrates, read-out: IC50 for inhibition of PPP1C",< 2000 nM
same,IC50,"[4]; substrate DiFMUP, read-out: Phosphatase IC50 mean ± SE, PPP1C",1800 ± 21 nM
same,IC50,"[4]; substrate [32P]-labeled phosphohistone, read-out: Phosphatase IC50 mean ± SE, PPP1C",1680 ± 130 nM
same,CNP-induced cGMP increase in FGF-treated tibias,NPR2 guanylyl cyclase [1]; 1 μM preincubation 60 minutes before FGF18 (80 minutes),no effect
same,"Effectiveness in counteracting inactivation of NPR2 by FGF, compared with cantharidin",NPR2 guanylyl cyclase [1]; 5 μM LB-100 equivalent to 10 μM cantharidin,more effective than cantharidin
same,CNP-induced cGMP increase in FGF-treated tibias,NPR2 guanylyl cyclase [1]; 5 μM preincubation 60 minutes before FGF18 (80 minutes),enhanced
same,CNP-induced cGMP increase in FGF-treated tibias,NPR2 guanylyl cyclase [1]; 10 μM preincubation 60 minutes before FGF18 (80 minutes),enhanced
same,Chondrocyte morphology in the live growth plate,"NPR2 guanylyl cyclase [1]; 10 μM, 2-hour incubation",no visible change in chondrocyte morphology
same,NPR2 dephosphorylation in response to FGF,NPR2; 10 μM preincubation 1 hour with BMN-111 0.1 μM present,counteracts the FGF-induced dephosphorylation
same,NPR2 dephosphorylation in response to FGF,NPR2; 10 μM preincubation 1 hour,only partial
same,IC50,PPP2C; substrate DiFMUP,390 ± 13 nM
same,IC50,PPP2C; [5],640 ± 37 nM
same,"Increase in bone length, ratio treated/vehicle-treated control",Fgfr3^Y367C/+ femurs,1.30
same,"Increase of total bone and cartilage area, growth ratio treated/control",Fgfr3^Y367C/+ femurs,1.40
same,IC50,PPP5C; substrate DiFMUP,1820 ± 93 nM
same,IC50,PPP5C; [5],4900 ± 290 nM
